These results are taken from publication PMC5717258, “Bioaccumulation of pharmaceuticals and personal care product chemicals in fish exposed to wastewater effluent in an urban wetland” (Scientific Reports, 2017).

Like-named read-outs stand apart in the source and are kept apart here.

The nature of one series: in vivo. To be noted: goldfish (Carassius auratus), in vivo. From the text:
Cages were visited weekly, and fish (13/cage) were fed during the visits (20 g/cage). All animal experiments were in accordance with CCAC guidance and approved by the GLLFAS-WSTD Animal Care Committee (Government of Canada). Further details on the caging and preparation of the fish and animal care protocols are provided in Simmons et al.[32]. […] A fourth site, Jordan Harbour (JH), a widening of 20 Mile Creek adjacent to Lake Ontario near Jordan ON, served as a reference site. Mass and fork length were measured and recorded. Plasma collection and storage is described in the SI. Plasma of caged goldfish was divided for proteome, metabolome and PPCP analysis. Due to limited volumes, pooled samples of plasma from 25 individual fish (50 µL/individual) was pooled to yield one sample from at each location for PPCP analysis.
(§1) A total of 20 fish plasma samples from the pooled caged fish (7) and the wild fish (13) along with 12 water samples were selected for analysis. […] A full list of analytes is provided in Supplementary Information. Mass labelled^13C-, or deuterated surrogate internal standards were used for quantification of all analytes via the isotope dilution/surrogate standard quantitation method. Prior to extraction and/or clean-up procedures, aqueous samples were adjusted to pH 2.0, spiked with extraction surrogate standards, then adjusted to pH 4 using tetrasodium ethylenediamine-tetraacetate dihydrate. Plasma samples (2.3–2.5 g) were spiked with extraction surrogate standards, sonicated with 20 mL acetonitrile, then diluted with ultra-pure water to 200 mL. The extracts were cleaned up by solid phase extraction using Oasis HLB cartridges (Waters Ltd. Mississauga ON), filtered, and analyzed by liquid chromatography-electrospray ionization-tandem mass spectrometry (LC/ESI-MS/MS) in positive or negative ionization mode. The analysis of the complete list of analytes (SI Table S1) required a total of five instrumental runs.
(§2) Quality assurance steps included analysis of lab blanks for water and plasma along with matrix recovery spikes. […] Detection limits (DLs) were defined as lowest calibration level adjusted to the maximal sample size or 3 times the signal of the noise in the target channel converted to an equivalent sample, whichever was greater. […] Where analytes were detected in two or more samples of the same species or series of water samples, non-detect values were converted to ½ the DL value for reporting purposes.

How the values of series [1] were obtained: (§3) Plasma from 9 individual male fish (500 µL/individual) was pooled to yield 3 samples for PPCP analysis. […] Plasma from 6 individual carp (2.3–3.5 g) from each location was selected for PPCP analysis. […] Plasma samples were frozen (−80 °C) until analysis.
as §1, §2

How the values of series [2] were obtained: as §3, §1
This is another data set of the same source.

Series [3] in a line: Plasma bioaccumulation factor (BAFP), goldfish. It is filed as in vivo, goldfish (Carassius auratus). To be noted: CPM2; water sample of August 2012. The method, then: Bioaccumulation factor (BAFP) was calculated as concentration in fish plasma (ng/g × 1000) divided by concentration in water (ng/L). Two widely used modeling approaches for predicting organic contaminant bioaccumulation were assessed: the BCF-BAF model for whole body BAFs[53] and the fish-plasma concentration calculation of Huggett et al.[35] modified by Berninger et al.[54]. The latter involves estimating an octanol-water partition coefficient (Kow) adjusted for fraction ionized (log D), using the pKa value to adjust log Kow[54] taking into account the pH of CPM waters. Further information on the calculation of log D, blood-water partitioning (PBW), and plasma concentrations (FPC) is given in the SI.

Details of series [4]: method as in US EPA Chemistry Dashboard. To be noted: ref US EPA Chemistry Dashboard; cited from earlier work.
For series [5] the following is noted: cited from earlier work.
For series [6] the following is noted: cited from earlier work; for Salmon (whole body) concentration: Table S7, ref Meador et al. (2016).
For series [7] the following is noted: cited from earlier work. This is another data set of the same source.
[8] abbreviates: carp (Cyprinus carpio), in vivo.
[9] abbreviates: female, carp (Cyprinus carpio), in vivo.
Where [10] appears, read: male, carp (Cyprinus carpio), in vivo.
Where [11] appears, read: male, goldfish (Carassius auratus), in vivo.
Setting [12] is: Jordan Harbour brown bullhead, wet weight.

Compound `CC1CCc2cc(F)cc3c(=O)c(C(=O)O)cn1c23` (stereo not shown) [Flumequine] registered a concentration at 21 days in the series “in vivo” (caged goldfish plasma, range of concentrations) of 0.16 to 1.37 ng/g. Further, the concentration at 21 days in “in vivo” (plasma concentration, CPM1 caged) turned out to be 1.1 ng/g. Further, the concentration at 21 days in “in vivo” (plasma concentration, CPM2 caged) worked out at 0.146 ng/g. Also, the concentration at 21 days in the series “in vivo” (plasma concentration, CPM3 caged) turned out to be 0.344 ng/g. The concentration at 21 days in the series “in vivo” (plasma concentration, JH caged) is below 0.3 ng/g. For the same compound, in series [1] (setting [8]), the “Cootes carp plasma, range of concentrations” value lay within 0.16 to 1.23 ng/g and the “plasma concentration, carp, this study (mean)” value is 0.70 ng/g wet weight or ng/mL for plasma. Also, in series [1] (setting [9]), the “plasma concentration, CPM-C 10” value came out at 1.23 ng/g; the “plasma concentration, CPM-C 13” value is listed as 1.14 ng/g; the “plasma concentration, CPM-C 36” value was 0.698 ng/g; the “plasma concentration, JH-C 73” value is given as 0.155 ng/g. In series [1] (setting [9]), the “plasma concentration, JH-C 75” value amounted to 0.474 ng/g and the “plasma concentration, JH-C 82” value is recorded as 0.151 ng/g. Further, in series [1] (setting [10]), the “plasma concentration, CPM-C 01” value is reported as 0.158 ng/g; the “plasma concentration, CPM-C 2” value turned out to be 0.799 ng/g; the “plasma concentration, CPM-C 20” value is 0.162 ng/g; the “plasma concentration, JH-C 54” value is recorded as 0.159 ng/g. In addition, in series [1] (setting [10]), the “plasma concentration, JH-C 74” value came out at 0.160 ng/g and the “plasma concentration, JH-C 78” value is 0.252 ng/g. Besides, in series [1] (setting [11]), the “plasma concentration, CPM wild-01” value came out at 1.37 ng/g; the “plasma concentration, CPM wild-02” value turned out to be 0.188 ng/g; the “plasma concentration, CPM wild-03” value is 0.157 ng/g; the “plasma concentration, goldfish, this study (mean)” value was 0.57 ng/g wet weight or ng/mL for plasma. In addition, the “wild goldfish plasma, range of concentrations” value in series [1] (setting [11]) fell in the range of 0.15 to 1.1 ng/g. In series [2] (Brown Bullhead (Ameiurus nebulosus), in vivo), the “plasma concentration, JH-BB” value is on record as 0.622 ng/g. Also, the “BAFP, CPM2 goldfish caged” value in series [3] is 38 L/kg.

As for `O=C(Nc1ccc(Cl)cc1)Nc1ccc(Cl)c(Cl)c1` [Triclocarban], the “Cootes carp plasma, range of concentrations” value in series [1] (Cootes Paradise Marsh, range) lay within 0.32 to 3.35 ng/g. In addition, the “plasma concentration, CPM-C 01” value in series [1] (Cootes carp 01, 2011, male, wet weight) was 0.317 ng/g. Besides, the “plasma concentration, CPM-C 2” value in series [1] (Cootes carp 2, Sep 27, 2011, male, wet weight) came to 0.431 ng/g. In addition, the “plasma concentration, CPM-C 10” value in series [1] (Cootes carp 10, Sep 28, 2011, female, wet weight) was found to be 0.453 ng/g. Also, the “plasma concentration, CPM-C 13” value in series [1] (Cootes carp 13, Sep 28, 2011, female, wet weight) came to 0.468 ng/g. Also, the “plasma concentration, CPM-C 20” value in series [1] (Cootes carp 20, 2011, male, wet weight) came out at 0.324 ng/g. Moreover, the “plasma concentration, CPM-C 36” value in series [1] (Cootes carp 36, Oct 3, 2011, female, wet weight) turned out to be 3.35 ng/g. Further, the “Carp plasma concentration, this study (range)” value in series [1] (Table S7) lay in the range of 0.32 to 3.35 ng/g. Moreover, in series [1] (Table S8), the “plasma concentration, carp, this study (mean)” value is 0.89 ng/g wet weight or ng/mL for plasma and the “plasma concentration, goldfish, this study (mean)” value is “< mdl”. Also, the “plasma concentration, JH-BB” value in series [2] (setting [12]) is reported as below 1.14 ng/g. The “log Kow” value in series [4] is 4.90. The “BAFP in carp plasma, median” value in series [5] is 6.9. Also, the “plasma concentration, crucian carp & common carp” value in series [5] (mean ± SD, ref Tanoue et al.16) is on record as 0.34±0.20 ng/g wet weight or ng/mL for plasma. For the same compound, the “Salmon (whole body) concentration” value in series [6] is given as 6.5 ng/g. In addition, in series [6] (ref Meador et al. 18), the “whole fish concentration, salmon” value was 6.5 ng/g wet weight or ng/mL for plasma. Further, in series [7] (ref Meador et al. 18), the “whole fish concentration, sculpin” value is “< mdl”.

As to `Cn1c(=O)c2c(ncn2C)n(C)c1=O` [Caffeine], the concentration at 21 days is 3.38 ng/g in “in vivo” (plasma concentration, CPM1 caged, CPM1, 07-2014, pooled plasma, wet weight); 1.46 ng/g in “in vivo” (plasma concentration, CPM2 caged, CPM2, 07-2014, pooled plasma, wet weight); 1.53 ng/g in “in vivo” (plasma concentration, CPM3 caged, CPM3, 07-2014, pooled plasma, wet weight); below 3 ng/g in “in vivo” (plasma concentration, JH caged, Jordan Harbour reference site, 07-2014, pooled plasma, wet weight). Moreover, the “plasma concentration, JH-C 54” value in series [1] (Jordan Harbour carp 54, Nov 7, 2011, male, wet weight) is recorded as below 3.18 ng/g. In addition, the “plasma concentration, JH-C 73” value in series [1] (Jordan Harbour carp 73, Nov 7, 2011, female, wet weight) is listed as below 3.09 ng/g. For the same compound, the “plasma concentration, JH-C 74” value in series [1] (Jordan Harbour carp 74, Nov 7, 2011, male, wet weight) is reported as below 3.19 ng/g. The “plasma concentration, JH-C 75” value in series [1] (Jordan Harbour carp 75, Nov 7, 2011, female, wet weight) is on record as below 4.52 ng/g. Also, the “plasma concentration, JH-C 78” value in series [1] (Jordan Harbour carp 78, Nov 7, 2011, male, wet weight) is below 3.13 ng/g. In addition, in series [1] (Jordan Harbour carp 82, Nov 7, 2011, female, wet weight), the “plasma concentration, JH-C 82” value is listed as below 3.01 ng/g. Further, the “plasma concentration, CPM wild-02” value in series [1] (wild goldfish sample 02, 2012, wet weight) came to 1.525 ng/g. Also, the “plasma concentration, CPM wild-03” value in series [1] (wild goldfish sample 03, 2012, wet weight) is listed as 1.565 ng/g. In addition, the “plasma concentration, JH-BB” value in series [2] (setting [12]) is listed as below 5.7 ng/g. Also, the “Salmon (whole body) concentration” value in series [6] was 18 ng/g. For the same compound, in series [7] (Table S7, ref Meador et al. (2016)), the “Sculpin (whole body) concentration” value is reported as 13 ng/g.
